In PMC7618597, “Dual Nurr1/RXR agonism of valerenic acid and synthetic mimetics enables dimer-selective Nurr1 modulation” (ACS medicinal chemistry letters, 2025) one finds Nurr1 homodimer formation data, which are given here for two compounds.

The experiment concerns the target T1, Nurr1 homodimer (Homo sapiens, UniProt P43354).
T1 construct: Tb^3+-cryptate labeled and sGFP-labeled Nurr1 LBD proteins; FRET acceptor consisted of sGFP-Nurr1 LBD
Put plainly: Nurr1 LBD homodimerization assay (HTRF). Format: biochemical. As to conditions: 30 μM, Tb3+-cryptate and sGFP labeled Nurr1 LBD. The procedure: To determine the molecular response of the Nurr1:RXR heterodimer on dual agonist binding, we employed homogenous time-resolved fluorescence resonance energy transfer (HTRF) based assays with labeled Nurr1 and RXR LBD proteins. Tb^3+-cryptate as streptavidin conjugate served as FRET donor and was coupled to biotinylated proteins. sGFP fusion proteins of the receptors of interest were used as FRET acceptors. Ligand effects on dimer formation were determined by titrating the sGFP-labeled dimer partner with a fixed concentration of the Tb^3+-labeled counterpart. […] The same effect was also observable for the natural product 1 (Figure S3).
Nurr1 dimerization assays (HTRF). Modulation of Nurr1 LBD homodimerization and heterodimerization of the LDBs of Nurr1 and RXRα was investigated by HTRF as reported previously4. Nurr1 LBD or RXRα LBD proteins labeled with sGFP were titrated against a fixed concentration of Tb3+-cryptate as streptavidin conjugate (Tb-SA) (610SATLF, Revvity) coupled to biotinylated Nurr1 LBD protein in the presence of test compounds at 30 µM or absence of compound as a negative control (apo). Assay solutions were prepared in buffer containing 25 mM HEPES pH 7.5, 150 mM KF, 5% (m/v) glycerol, 5 mM DTT, 0.1% (m/v) CHAPS and 1%
DMSO. The FRET donor complex was formed from biotinylated Nurr1 LBD (final concentration 0.188 nM) and Tb-SA (0.375 nM) and was kept constant. For the homodimerization assay, the FRET acceptor consisted of sGFP-Nurr1 LBD, which was titrated from 0.5 µM, while free sGFP was added to keep the total GFP content stable at 0.5 µM. […] Samples were equilibrated at room temperature for 2 h and fluorescence intensities (FI) after excitation at 340 nm were recorded at 520 nm for sGFP acceptor fluorescence and at 620 for Tb-SA donor fluorescence on a SPARK plate reader (Tecan Group Ltd.). […]
Evaluation of Nurr1-regulated gene expression. […] RNA concentration and purity were assessed using a NanoDrop One UV-vis spectrophotometer (Thermo Fisher Scientific) at 260/280 nm. […]

T1 sequence (P43354 360-595 limits assumed): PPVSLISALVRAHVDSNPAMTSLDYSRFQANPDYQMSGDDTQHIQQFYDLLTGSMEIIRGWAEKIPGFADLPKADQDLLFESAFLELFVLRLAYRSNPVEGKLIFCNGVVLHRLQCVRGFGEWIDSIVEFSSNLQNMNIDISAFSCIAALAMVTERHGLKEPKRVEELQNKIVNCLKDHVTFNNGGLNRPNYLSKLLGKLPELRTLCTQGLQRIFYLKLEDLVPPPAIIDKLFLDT

For `Cc1c(C)n(-c2ccc(CC(=O)O)cc2)c2ccc(F)cc12` [compound 3], the Nurr1 homodimer formation entry was “markedly diminished”.
The value for `Cc1c2c(n(-c3ccc(CC(=O)O)cc3)c1C)CCC(F)(F)C2` [compound 2] was “markedly diminished”.
